Source: patent US9150632B2 (Indiana University Research and Technology Corporation, priority 2009, dated 2015)
No end group written: not given here.

Experiments:
[1] = pH 7
[2] = Body weight, body composition and food intake in diet-induced obesity (DIO) mice; format: in vivo
Description: […] 6 mice per group with initial average body weight of 44 g were tested. Body weight, body composition, food intake, and blood glucose levels were determined periodically.
Body weight was measured before injection and at 1, 3, 5, and 7 days post-injection.
Changes in body weight of and food intake by the mice were measured 0, 1, 3, 5, 7, 8, 10, 12, and 14 days after injection. Blood glucose levels of the mice were monitored throughout the 14 days. Glucose tolerance tests were performed by injecting a 25% glucose in saline solution 1 hour or 24 hours after administration of the acylated or pegylated peptide and measuring blood glucose levels at −60, 0, 15, 30, 60, or 120 min after the glucose injection.
The acylated glucagon analogs were as follows:
C57BI/6 mice were obtained from Jackson Laboratories and fed a diabetogenic diet from Research Diets, a high sucrose diet with 58% kcal from fat. Mice were single or group-housed on a 12:12-h light-dark cycle at 22° C. with free access to food and water. All studies were approved by and performed according to the guidelines of the Institutional Animal Care and Use Committee of the University of Cincinnati.
Whole body composition (fat and lean mass) was measured using NMR technology (EchoMRI, Houston, Tex.).
The peptides were administered daily for two weeks to 11 groups of 8 C57Bl/6 mice by subcutaneous injection at a dose of 10 or 30 nmol/kg. […]

For “Glucagon, Cys17PEG5K: Glucagon Cys17(1-29) reacted with mPEG-Mal-5000”, the “Percent Soluble” value [1] was 94%.

With “Peptide U: SEQ ID NO: 1 with Glu16, Gln17, Ala18, Lys20, Glu21, Ile23, Cys24 with 20-kd pegylation, no AIB2, no lactam (HSQGTFTSDYSKYLDEQAAKEFIC(PEG 20 kDa)WLMNT)” the body weight lowering ([2]; each day for one week at 50 nmol/kg s.c.) was -13.71 ± 0.92 g.

With “HXQGTFTSDYSKYLDEQAAKEFICWLMNT-NH2 [Chimera-2-AIB^2 Cys^24-40 kD]” the “ability to lower body weight” value ([2]; i.p. 15 or 70 nmol/kg, 7 days post-injection) was “comparable ability to lower body weight”.
